The values below come from patent US7105527B2, “N4-acylcytosine nucleosides for treatment of viral infections” (priority 2001, dated 2006).

One data set relates to HIV-1RF. The experiment in a line: Anti-HIV (in MT-2 cells) assay, viral RNA accumulation. Type of data set: cell-based. Conditions: EC90, MT-2 cells, read-out: Anti-HIV-1 activity in different cells (EC90, μM) MT-2. Here is the method: In a second antiviral testing system, the potency of the compounds was determined by measurement of viral RNA accumulation in HIV-1RF infected MT-2 cells (Bacheler L T, Paul M, Otto M J, Jadhav P K, Stone B A & Miller J A (1994) An assay for HIV RNIn infected cell lysates, and its use for rapid evaluation of antiviral efficacy. Antivir. Chem. Chemother. 5:111–121). The virus titer was established to determine the dilution producing 15 to 30 ng/RNA per well of HIV RNIn 3 days of infection. HIV-1 RNA was quantified using biotinylated capture and alkaline phosphatase-derivatized reporter oligonucleotides as described previously (Charvet A-S, Camplo M, Faury P, Graciet J C, Mourier N, Chermann J C & Kraus J L (1994) Inhibition of human immunodeficiency virus type 1 replication by phosphonoformate- and phosphonoacetate-2′,3′-dideoxy-3′-thiacytidine conjugates. J. Med. Chem. 37:2216–2223). In a third system, the effect of analogs on the replication of HIV-1NL4-3 was determined via the InterCompany Consortium consensus p24 assay as previously described (Jadhav P K & MacKay M F (1997) Cyclic urea amide: HIV-1 protease inhibitors with low nanomolar potency against both wild types and protease inhibitor resistant mutants of HIV. J. Med. Chem. 40:181–190). Recombinant viruses were recovered by transfecting the appropriate NL4-3 plasmid by lipofection. Virus stocks recovered 7 to 10 days post-transfection were titered on MT-4 cells to determine if the dilution produced 1,000 to 3,000 ng p24 in 4 days. This dilution was then used in drug susceptibility assays, where drug was added 24 h post infection of cells, and p24 quantified by ELISA 3 days later.

The nature of data set [1]: Cytotoxicity assay in Vero cells. Conditions: African green monkey. The format is cell-based. Here is the method: (§1) The toxicity of the compounds was assessed in Vero, human PBM, CEM (human lymphoblastoid), MT-2, and HepG2 cells, as described previously (Schinazi […]., Cannon D. L., Xie […]., Smith […]. […] Cycloheximide was included as positive cytotoxic control, and untreated cells exposed to solvent were included as negative controls. The cytotoxicity IC50 was obtained from the concentration-response curve using the median effective method described previously (Chou […]. […] Belen'kii M. S. & Schinazi R. F.

Data set [2] can be described thus: Cytotoxicity assay in CEM cells. The format is cell-based, human. The conditions noted are these: human, CEM lymphoblastoid cells. Here is the method:
as §1

A short description of data set [3]: Cytotoxicity assay in PBM cells. Type of data set: cell-based, human. Conditions: human, human PBM cells. Here is the method:
as §1

Data set [4] can be described thus: Cytotoxicity assay in MT-2 cells. The format is cell-based. Conditions: human. Here is the method: as §1
The next data set deals with HIV-1LAl. The experiment in a line: Anti-HIV (in PBM cells) assay, reverse transcriptase readout. Type of data set: cell-based. Here is the method:
Anti-HIV-1 activity of the compounds was determined in human peripheral blood mononuclear (PBM) cells as described previously (Schinazi […]., Cannon D., Mathis R., Lloyd R. M. Jr., […]., St. Clair M., Wilson J., Furman P. A., Painter G., Choi […]. Antimicrob. Agents Chemother. 1992, 36, 2423; Schinazi […]., Cannon D., Xie […]., Smith G., Hahn E. Antimicrob. Agents Chemother. 1990, 34, 1061). Stock solutions ([…]) of the compounds were prepared in sterile DMSO and then diluted to the desired concentration in growth medium. […] Virus obtained from the cell supernatant was quantified on day 6 after infection by a reverse transcriptase assay using (rA)n.(dT)12.18 as template-primer. […] AZT was included as positive control. The antiviral EC50 and EC90 were obtained from the concentration-response curve using the median effective method described previously (Chou […]. Enzyme Regul. 1984, 22, 27-55; Belen'kii M. S. & Schinazi R. F. Antiviral Res. 1994, 25, 1-11).

Data set [5] can be described thus: Cytotoxicity assay in HepG2 cells. The format is cell-based. Conditions: human. Here is the method:
as §1

The next data set relates to Vero cells. The experiment in a line: Cytotoxicity assay in Vero cells. The format is cell-based. Here is the method: as §1
The subject of data set [6] is CEM (human lymphoblastoid) cells. In words: Cytotoxicity assay in CEM cells. The format is cell-based. Here is the method: as §1
In a further data set the test system is human PBM cells. The experiment in a line: Cytotoxicity assay in PBM cells. The format is cell-based. Here is the method:
as §1

For a further data set, the system named is HepG2 cells. In words: Cytotoxicity assay in HepG2 cells. Type of data set: cell-based. Here is the method:
as §1

The mark [7] stands for this setting: Human immunodeficiency virus 1, MT2, Table 1.
Setting [8] is: Table 1, read-out: Cytotoxicity in different cells (IC50, μM) Vero.
The mark [9] stands for this setting: Table 1, read-out: Cytotoxicity in different cells (IC50, μM) CEM.
Where [10] appears, read: Table 1, read-out: Cytotoxicity in different cells (IC50, μM) PBM.
Where [11] appears, read: Table 1, read-out: Cytotoxicity in different cells (IC50, μM) MT-2.
The mark [12] stands for this setting: Human immunodeficiency virus 1, PBMC, Table 1, read-out: Anti-HIV-1 activity in different cells (EC90, μM) PBM.
Where [13] appears, read: Table 1, read-out: Cytotoxicity in different cells (IC50, μM) HepG2.
Setting [14] is: Table 1, read-out: Anti-HIV-1 activity in different cells (EC90, μM) PBM.
Where [15] appears, read: Human immunodeficiency virus 1, MT2, Table 2.
Setting [16] is: Table 2, read-out: Cytotoxicity in different cells (IC50, μM) PBM.
The mark [17] stands for this setting: Table 2, read-out: Cytotoxicity in different cells (IC50, μM) MT-2.
[18] abbreviates: Human immunodeficiency virus 1, PBMC, Table 2, read-out: Anti-HIV-1 activity in different cells (EC90, μM) PBM.
The mark [19] stands for this setting: Table 2, read-out: Cytotoxicity in different cells (IC50, μM) HepG2.
[20] abbreviates: Table 2, read-out: Cytotoxicity in different cells (IC50, μM) Vero.
Where [21] appears, read: Table 2, read-out: Cytotoxicity in different cells (IC50, μM) CEM.

Like-named read-outs stand apart in the source and are kept apart here.

With `Cc1cccc(C(=O)Nc2nc(=O)n([C@H]3CC[C@@H](CO)O3)cc2F)c1` [Compound 23, β-D-2′,3′-Dideoxy-5-fluoro-N-m-toluoylcytidine], the EC90 – broadly, the point of the concentration-response curve where the effect stands at 90% – was found to be 0.24 µM in the data set on HIV-1RF (setting [7]) and 0.012 µM with HIV-1LAl (setting [12]). The IC50 (usually the concentration that gives 50% inhibition) was 61.1 µM in data set [1] (setting [8]); > 100 µM in data set [2] (setting [9]); 8.4 µM in data set [3] (setting [10]); > 50 µM in [4] (setting [11]); > 100 µM in data set [5] (setting [13]).

With `CCCCc1ccc(C(=O)Nc2nc(=O)n([C@H]3CC[C@@H](CO)O3)cc2F)cc1` [Compound 27, β-D-N^4-(4-n-Butylbenzoyl)-2,3′-dideoxy-5-fluorocytidine], the IC50 was 3.2 µM in the data set with Vero cells (setting [8]), 1.3 µM in data set [6] (setting [9]), 1.1 µM in the data set on human PBM cells (setting [10]) and 1.9 µM with HepG2 cells (setting [13]). Also, the 90% effect concentration (EC90) in the data set on HIV-1LAl (setting [14]) came out at 0.31 µM.

Consider `CC(C)(C)c1ccc(C(=O)Nc2nc(=O)n([C@H]3CC[C@@H](CO)O3)cc2F)cc1` [Compound 28, β-D-N^4-(4-tert-Butylbenzoyl)-2,3′-dideoxy-5-fluorocytidine], for which the values for the EC90 with HIV-1RF (Table 1) and in the data set with HIV-1LAl (setting [14]) were 0.6 µM and 0.088 µM, respectively. For the same compound, the IC50 in the data set on Vero cells (setting [8]) was found to be 25.9 µM; in data set [6] (setting [9]), 6 µM; in the data set on human PBM cells (setting [10]), 12.5 µM; with HepG2 cells (setting [13]), 21.3 µM.

As to `O=C(Nc1nc(=O)n([C@H]2CC[C@@H](CO)O2)cc1F)c1cccs1` [Compound 30, β-D-2′,3′-Dideoxy-5-fluoro-N^4-(2-thiophenecarbonyl)cytidine], the EC90 in the data set on HIV-1RF (setting [7]) came to 0.4 µM; with HIV-1LAl (setting [12]) it was 0.052 µM. Also, the IC50 is 23.9 µM in data set [1] (setting [8]); 13.7 µM in data set [2] (setting [9]); 19.4 µM in data set [3] (setting [10]); > 50 µM in [4] (setting [11]); 37.9 µM in data set [5] (setting [13]).

Take `O=C(Nc1nc(=O)n([C@H]2CC[C@@H](CO)O2)cc1F)c1cc2ccccc2s1` [Compound 32, β-D-2′,3′-Dideoxy-5-fluoro-N^4-(benzo[b]thiophene-2-carbonyl)cytidine]: the EC90 in the data set with HIV-1RF (setting [7]) is 0.3 µM; with HIV-1LAl (setting [12]), 0.19 µM. The IC50 in data set [1] (setting [8]) is 39.6 µM; in [2] (setting [9]), 4.5 µM; in data set [3] (setting [10]), 23.5 µM; in [4] (setting [11]), > 50 µM; in data set [5] (setting [13]), 1.3 µM.

For `O=C(Nc1nc(=O)n([C@H]2CC[C@@H](CO)O2)cc1F)C1CCCCC1` [Compound 33, β-D-N^4-(Cyclohexanecarbonyl)-2′,3′-dideoxy-5-fluorocytidine], the concentration for an effect of 90% (EC90) in the data set on HIV-1RF (setting [7]) amounted to 0.3 µM; in the data set with HIV-1LAl (setting [12]), 0.086 µM. Besides, the IC50 was determined as 11.8 µM in data set [1] (setting [8]); 6.4 µM in data set [2] (setting [9]); 4.5 µM in data set [3] (setting [10]); 50 µM in data set [4] (setting [11]); 6.5 µM in [5] (setting [13]).

On to `COc1ccc(C(=O)Nc2nc(=O)n([C@H]3C=C[C@@H](CO)O3)cc2F)cc1` [Compound 42, β-D-N^4-p-Anisoyl-2′,3′-didehydro-2′,3′dideoxy-5-fluorocytidine], for which the EC90 was 0.58 µM in the data set on HIV-1RF (setting [15]) and 0.7 µM in the data set on HIV-1LAl (setting [18]). Besides, the values for the IC50 in [3] (setting [16]), in [4] (setting [17]) and in data set [5] (setting [19]) were > 100 µM, > 50 µM and > 100 µM, respectively.

As to `O=C(Nc1nc(=O)n([C@H]2C=C[C@@H](CO)O2)cc1F)c1cccc([N+](=O)[O-])c1` [Compound 46, β-D-2′,3′-Didehydro-2,3′-dideoxy-5-fluoro-N^4-(3-nitrobenzoyl)cytidine], the concentration for an effect of 90% (EC90) in the data set with HIV-1RF (setting [15]) turned out to be 0.58 µM; in the data set on HIV-1LAl (setting [18]), 0.93 µM. Further, the IC50 is > 100 µM in data set [1] (setting [20]); 54.5 µM in data set [2] (setting [21]); 11.9 µM in [3] (setting [16]); > 50 µM in data set [4] (setting [17]); > 100 µM in data set [5] (setting [19]).

Turning to `CCCCc1ccc(C(=O)Nc2nc(=O)n([C@H]3C=C[C@@H](CO)O3)cc2F)cc1` [Compound 52, β-D-N^4-(4-n-Butylbenzoyl)-2′,3′-didehydro-2,3′-dideoxy-5-fluoro-^4cytidine], the half-inhibitory concentration (IC50) in the data set with Vero cells (setting [20]) was 29.4 µM; in data set [6] (setting [21]) it was 8.5 µM; with human PBM cells (setting [16]), 7.3 µM; with HepG2 cells (setting [19]), 5.1 µM. Moreover, in the data set on HIV-1LAl (Table 2, read-out: Anti-HIV-1 activity in different cells (EC90, μM) PBM), the concentration for an effect of 90% (EC90) was determined as 3.1 µM.
